Reference: patent publication US20200138827A1, “SMALL MOLECULE MODULATORS OF HUMAN STING” (Curadev Pharma Limited, priority 2017, published 2020)
Like-named read-outs stand apart in the source and are kept apart here.

Legend:
[1] = tested on: NF-κB pathway; assay: Reporter gene expression assay in THP1-Dual cells, NFkB axis (secreted SEAP); type: cell-based, human; conditions: read-out: THP-NFKB activity (EC50 range)
Protocol: (§1) THP1-Dual™ cells (Invivogen) were derived from the human THP-1 monocyte cell line by stable integration of two inducible reporter constructs. As a result, THP1-Dual™ cells allow the simultaneous study of the NF-κB pathway, by monitoring the activity of secreted SEAP, and the IRF pathway, by assessing the activity of a secreted luciferase (Lucia). […] THP1-Dual™ cells were seeded in 384-well plates in growth medium and stimulated with novel compounds. After […] of stimulation supernatant were removed and reporter proteins were readily measured in the cell culture supernatant using QUANTI-Blue™ (Invivogen), a SEAP detection reagent, and QUANTI-Luc™ (Invivogen), a luciferase detection reagent on a Spectramax i3X luminometer.

[2] = tested on: IRF pathway; assay: Reporter gene expression assay in THP1-Dual cells, IRF axis (secreted Lucia luciferase); type: cell-based, human; conditions: read-out: THP-IRF activity (EC50 range)
Protocol: as §1

[3] = target: T1, hSTING(HAQ) (Homo sapiens, UniProt Q86WV6, G230A/H232R/R293Q/R71H); assay: Luciferase reporter assay in HEK293T-hSTING-Luciferase cells, HAQ polymorph; type: cell-based; conditions: 20 hr stimulation, read-out: HAQ activity (EC50 range)
T1 construct: host or cells: HEK293T
T1 sequence (Q86WV6 whole entry R71H/G230A/H232R/R293Q): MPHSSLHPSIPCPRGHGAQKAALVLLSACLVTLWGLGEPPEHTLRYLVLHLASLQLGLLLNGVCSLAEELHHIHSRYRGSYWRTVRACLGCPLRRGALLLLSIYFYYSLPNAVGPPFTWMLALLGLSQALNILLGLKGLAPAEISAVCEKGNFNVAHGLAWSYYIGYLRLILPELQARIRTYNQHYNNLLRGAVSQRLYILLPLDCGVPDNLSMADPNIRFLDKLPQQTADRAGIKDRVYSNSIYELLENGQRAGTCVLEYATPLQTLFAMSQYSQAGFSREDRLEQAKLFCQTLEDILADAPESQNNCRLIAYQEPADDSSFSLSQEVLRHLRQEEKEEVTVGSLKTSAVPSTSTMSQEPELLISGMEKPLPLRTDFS
From the text: (§2) • a) Stable STING expressing cells—Stable HEK293T STING-expressing cell lines were generated using plasmids purchased from Invivogen, Calif., USA, that contain STING cDNA cloned into the pUNO-1 vector under hEF1-HTLV promoter and containing the Blasticidin selection cassette. The plasmids hSTING(R232), hSTING(H232), hSTING(HAQ) were directly procured from Invivogen while hSTING (AQ) and hSTING (Q) were derived from hSTING(HAQ) and hSTING (R232) plasmids respectively by using a PCR based site directed mutagenesis method. These vectors were individually transfected into HEK293T cells using Lipofectamine (Invitrogen) and transfected cells were selected under Blasticidin selection. These transfected cells were further subjected to clonal selection using the limiting dilution method to obtain clonally pure populations of HEK cells transfected with each of the above mentioned human STING variants. Only those clones were selected in which ligand independent activation of STING was minimal. • b) Stable Luciferase reporter gene expressing cells—Stable HEK293T Luciferase reporter gene expressing cell lines were generated using pCDNA4 plasmids under an IRF-inducible promoter. This promoter is comprised of five tandem interferon-stimulated response elements (ISRE) fused to an ISG54 minimal promoter. This vector was transfected into HEK293T cells using Lipofectamine (Invitrogen) and transfected cells were selected under Zeocin selection. These transfected cells were further subjected to clonal selection using the limiting dilution method to obtain clonally pure populations of HEK cells transfected the Luciferase reporter construct. Only those clones were selected in which ligand independent induction of luciferase was minimal.
(§3) 5×10^5 clonally selected HEK293T-hSTING-Luciferase cells were seeded in 384-well plates in growth medium and stimulated with novel compounds. After 20 hr of stimulation supernatant were removed and secretary reporter gene activity were measured using the Quanti-Luc detection system (Invivogen) on a Spectramax i3X luminometer.
(§4) The 5 major polymorphisms of human STING are shown in FIG. 1, with their prevalence in human populations indicated.

[4] = target: T2, hSTING(H232) (Homo sapiens, UniProt Q86WV6); assay: Luciferase reporter assay in HEK293T-hSTING-Luciferase cells, H232 polymorph; type: cell-based; conditions: 20 hr stimulation, read-out: H232 activity (EC50 range)
T2 construct: host or cells: HEK293T
T2 sequence (Q86WV6 whole entry): as the sequence (Q86WV6 whole entry R71H/G230A/H232R/R293Q) above, with H71R, A230G, R232H, Q293R counted along it
From the text: as §2, §3, §4

[5] = target: T3, WT/R232 STING protein (Homo sapiens, UniProt Q86WV6, H232R); assay: Luciferase reporter assay in HEK293T-hSTING-Luciferase cells, WT/R232; type: cell-based; conditions: 20 hr stimulation, read-out: R232 Activity (EC50 range)
T3 construct: host or cells: HEK293T
T3 sequence (Q86WV6 whole entry H232R): as the sequence (Q86WV6 whole entry R71H/G230A/H232R/R293Q) above, with H71R, A230G, Q293R counted along it
Outline: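 […], read by luminescence from supernatant after 20 h compound stimulation. Cells: clonally selected HEK293T (5×10^5/well) stably carrying WT/R232 human STING and a luciferase reporter under five tandem ISREs fused to an ISG54 minimal promoter.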

Row | EC50 ([1]; Homo sapiens, THP1-Dual) [µM] | EC50 ([2]; Homo sapiens, THP1-Dual) [µM] | EC50 [3] [µM] | EC50 [4] [nM] | EC50 [5] [nM] | Structure (SMILES) | EC50 [2] [µM] | EC50 [1] [µM]
1 | > 10 | > 10 | 1 to 10 | < 1000 | < 1000 | O=C(NCc1c(F)cccc1F)c1ccc2c(c1)N(Cc1c(F)cccc1Cl)C(=O)CS2 [Example 31, 4-(2-chloro-6-fluorobenzyl)-N-(2,6-difluorobenzyl)-3-oxo-3,4-dihydro-2H-benzo[b-1,4]thiazine 6-carboxamide] |  | 
2 | > 10 | > 10 | 1 to 10 | < 1000 | < 1000 | O=C(NCc1ccc(F)cc1F)c1ccc2c(c1)N(Cc1c(F)cccc1Cl)C(=O)CS2 [Example 34, 4-(2-chloro-6-fluorobenzyl)-N-(2,4-difluorobenzyl)-3-oxo-3,4-dihydro-2H-benzo[b-1,4]thiazine-6-carboxamide] |  | 
3 | > 10 | > 10 | > 10 | 1000 to 10000 | < 1000 | Cc1cccc(CNC(=O)c2ccc3c(c2)N(Cc2c(F)cccc2Cl)C(=O)CS3)c1 [Example 37, 4-(2-chloro-6-fluorobenzyl)-N-(3-methylbenzyl)-3-oxo-3,4-dihydro-2H-benzo[b-1,4]thiazine-6-carboxamide] |  | 
4 | > 10 | > 10 | 1 to 10 | 1000 to 10000 | 1000 to 10000 | O=C(NCc1c(F)cc(F)cc1F)c1ccc2c(c1)N(Cc1ccncc1)C(=O)CS2 [Example 39, 3-oxo-4-(pyridin-4-ylmethyl)-N-(2,4,6-trifluoro-benzyl)-3,4-dihydro-2H-benzo[b-1,4]thiazine-6-carboxamide] |  | 
5 | 1 to 10 | 1 to 10 | 1 to 10 | 1000 to 10000 | < 1000 | O=C(NCc1cc2ccccc2o1)c1ccc2c(c1)N(Cc1c(F)cccc1Cl)C(=O)CS2 [Example 40, N-(benzofuran-2-ylmethyl)-4-(2-chloro-6-fluorobenzyl)-3-oxo-3,4-dihydro-2H-benzo[b-1,4]thiazine-6-carboxamide] |  | 
6 | > 10 | > 10 | 1 to 10 | 1000 to 10000 | 1000 to 10000 | O=C(NCc1cc2ccccc2o1)c1ccc2c(c1)N(Cc1ccccc1)C(=O)CS2 [Example 69, N-(benzofuran-2-ylmethyl)-4-benzyl-3-oxo-3,4-dihydro-2H-benzo[b-1,4]thiazine-6-carboxamide] |  | 
7 | > 10 | > 10 | 1 to 10 | 1000 to 10000 | 1000 to 10000 | O=C(NCc1ccco1)c1ccc2c(c1)N(Cc1cccc(F)c1F)C(=O)CS2 [Example 82, 4-(2,3-difluorobenzyl)-N-(furan-2-ylmethyl)-3-oxo-3,4-dihydro-2H-benzo[b-1,4]thiazine-6-carboxamide] |  | 
8 | > 10 | > 10 | > 10 | > 10000 | 1000 to 10000 | Cc1cc(CN2C(=O)CSc3ccc(C(=O)NCc4ccco4)cc32)cc(C(F)(F)F)c1 [Example 83, N-(furan-2-ylmethyl)-4-(3-methyl-5-(trifluoromethyl)benzyl)-3-oxo-3,4-dihydro-2H-benzo[b-1,4]thiazine-6-carboxamide] |  | 
9 | > 10 | > 10 | > 10 | 1000 to 10000 | < 1000 | O=C(NCc1ccco1)c1ccc2c(c1)N(Cc1cc(F)cc(F)c1)C(=O)CS2 [Example 87, 4-(3,5-difluorobenzyl)-N-(furan-2-ylmethyl)-3-oxo-3,4-dihydro-2H-benzo[b][1,4] thiazine-6-carboxamide] |  | 
10 | > 10 | > 10 | > 10 | 1000 to 10000 | 1000 to 10000 | O=C(NCc1ccco1)c1ccc2c(c1)N(Cc1c(Cl)cccc1Cl)C(=O)CS2 [Example 93, 4-(2,6-dichlorobenzyl)-N-(furan-2-ylmethyl)-3-oxo-3,4-dihydro-2H-benzo[b-1,4]thiazine-6-carboxamide] |  | 
11 | > 10 | > 10 | < 1 | < 1000 | < 1000 | O=C(NCc1c(F)cc(F)cc1F)c1ccc2c(c1)N(Cc1c(F)cccc1Cl)C(=O)CS2 [Example 112, 4-(2-chloro-6-fluorobenzyl)-3-oxo-N-(2,4,6-trifluorobenzyl)-3,4-dihydro-2H-benzo[b-1,4]thiazine-6-carboxamide] |  | 
12 | > 10 | > 10 | > 10 | 1000 to 10000 | 1000 to 10000 | O=C(NCc1ccccc1)c1ccc2c(c1)N(Cc1ccccc1)C(=O)CS2 [Example 118, N,4-dibenzyl-3-oxo-3,4-dihydro-2H-benzo[b-1,4]thiazine-6-carboxamide] |  | 
13 | > 10 | > 10 | > 10 | 1000 to 10000 | 1000 to 10000 | O=C(NCc1ccco1)c1ccc2c(c1)N(Cc1ccc(F)cc1)C(=O)CS2 [Example 120, 4-(4-fluorobenzyl)-N-(furan-2-ylmethyl)-3-oxo-3,4-dihydro-2H-benzo[b-1,4]thiazine-6-carboxamide] |  | 
14 | > 10 | > 10 | 1 to 10 | 1000 to 10000 | 1000 to 10000 | O=C(NCc1ccc(F)cc1)c1ccc2c(c1)N(Cc1c(F)cccc1Cl)C(=O)CS2 [Example 127, 4-(2-chloro-6-fluorobenzyl)-N-(4-fluorobenzyl)-3-oxo-3,4-dihydro-2H-benzo[b-1,4]thiazine-6-carboxamide] |  | 
15 | 1 to 10 | 1 to 10 |  |  | < 1000 | CC1Sc2ccc(C(=O)NCc3c(F)cc(F)cc3F)cc2N(Cc2ccccc2F)C1=O (stereo not shown) [Example 140, 4-(2-fluorobenzyl)-2-methyl-3-oxo-N-(2,4,6-trifluorobenzyl)-3,4-dihydro-2H-benzo[b-1,4]thiazine-6-carboxamide] |  | 
16 |  |  | < 1 | < 1000 |  | CC1Sc2ccc(C(=O)NCc3c(F)cc(F)cc3F)cc2N(Cc2ccccc2F)C1=O (stereo not shown) [Example 142, 4-(2-fluorobenzyl)-2-methyl-3-oxo-N-(2,4,6-trifluorobenzyl)-3,4-dihydro-2H-benzo[b-1,4]thiazine-6-carboxamide] | 1 to 10 | 
17 |  |  |  |  |  | CC1(CCl)Sc2ccc(C(=O)NCc3ccc(F)cc3F)cc2N(Cc2c(F)cccc2Cl)C1=O (stereo not shown) [Example 150, 4-(2-chloro-6-fluorobenzyl)-2-(chloromethyl)-N-(2,4-difluorobenzyl)-2-methyl-3-oxo-3,4-dihydro-2H-benzo[b][1,4] thiazine-6-carboxamide] | 1 to 10 | 1 to 10
18 |  |  |  |  | > 10000 | O=C(NCc1cc2ccccc2o1)c1cnc2c(c1)N(Cc1cc(F)cc(F)c1)C(=O)CC2 [Example 278, N-(benzofuran-2-ylmethyl)-5-(3,5-difluorobenzyl)-6-oxo-5,6,7,8-tetrahydro-1,5-naphthyridine-3-carboxamide] |  | 
19 |  |  |  |  | > 10000 | O=C(NCc1ccc(F)cc1F)c1cnc2c(c1)N(Cc1ccc(F)cc1)C(=O)CC2 [Example 280, N-(2,4-difluorobenzyl)-5-(4-fluorobenzyl)-6-oxo-5,6,7,8-tetrahydro-1,5-naphthyridine-3-carboxamide] |  | 
20 |  |  |  |  | 1000 to 10000 | O=C(NCc1ccc(F)cc1F)c1ccc2c(n1)N(Cc1ccc(F)cc1)C(=O)CC2 [Example 282, N-(2,4-difluorobenzyl)-8-(4-fluorobenzyl)-7-oxo-5,6,7,8-tetrahydro-1,8-naphthyridine-2-carboxamide] |  | 
21 |  |  |  |  | 1000 to 10000 | O=C(NCc1c(F)cc(F)cc1F)c1ccc2c(n1)N(Cc1cc(F)cc(F)c1)C(=O)CC2 [Example 283, (3,5-difluorobenzyl)-7-oxo-N-(2,4,6-trifluorobenzyl)-5,6,7,8-tetrahydro-1,8-naphthyridine-2-carboxamide] |  | 
